Measurements published in patent publication US10544440B2, “Multiple protease deficient filamentous fungal cells and methods of use thereof” (Glykos Finland OY, priority 2013, dated 2020).
Square brackets hold non-standard residues; d marks the D form. Peptide text beside a SMILES is read from it. * marks the point of attachment. Sta = CC(C)C[C@H](N)[C@@H](O)CC(=O)O; Isovaleryl = CC(C)CC(=O)*

B1: SBTI: soybean trypsin inhibitor, protease inhibitor (protein, UniProt P01070 25-205, looked up)
Trypsin inhibitor A: DFVLDNEGNPLENGGTYYILSDITAFGGIRAAPTGNERCPLTVVQSRNELDKGIGTIISSPYRIRFIAEGHPLSLKFDSFAVIMLCVGIPTEWSVVEDLPEGPAVKIGENKDAMDGWFRLERVSDDEFNNYKLVFCPQQAEDDKCGDIGISIDHDDGTRRLVVSKNKPLVVQFQKLDKESL

Legend:
M1200 strain = experiment: Inhibitor studies on FGF21 production strain M1200 in 24 well culture; type: cell-based, Trichoderma reesei; conditions: M1200 24 well culture, inhibitors 10 μM, SBTI 0.1 mg/ml; for FGF21 expression, lower band / FGF21 expression, total product / FGF21 expression, upper band: day 4 immunoblot
Text: Chymostatin and SBTI are known to inhibit SLP2 and SLP7 subtilisin proteases that are still expressed in the M1200 strain. Pepstatin inhibits aspartic proteases such as PEP8, PEP11, PEP12 which are known to be secreted into the supernatant. 1,10-phenathroline targets mainly zinc metalloproteases which are secreted by Trichoderma. The M1200 strain was cultivated in 24 well format in TrMM with 10 g/L yeast extract, 20 g/L cellobiose, 10 g/L sorbose, PIPPS buffered at pH 4.5. Chymostatin, phenathroline, and pepstatin were used at a final concentration of 10 μM and SBTI was used at 0.1 mg/ml. Each treatment was done in duplicate wells and the untreated control was cultured in 4 wells.
The cultures were started by adding 1×10^7 spores into 50 ml of culture medium and adding 3 ml of culture medium plus spores to each well (6×10^5 spores/well). 100 μl of each culture supernatant was collected on days 4, 5, and 6. The mycelium was spun down to remove only the supernatant. Orange LSB was added and the samples were heated for 5 minutes. 2 μl of the supernatant+LSB was loaded per well into 4-20% Criterion TGX gel. The gel was run and proteins were transferred to nitrocellulose membranes.
The expressed FGF21 was detected by immunoblotting as above. A commercially purchased N-terminal antibody rabbit polyclonal from Abcam (#ab66564) and C-terminal rabbit polyclonal antibody from Abcam (#ab137715) were used in some cases.

M393 strain = experiment: FGF21 production by M393 in 24 well cultures treated with protease inhibitors; type: cell-based, Trichoderma reesei; conditions: M393 24 well culture, 10 μM pepstatin A added, day 6
Protocol: The M393 strain was grown with and without protease inhibitors pepstatin A, chymostatin, or soybean trypsin inhibitor. Independent wells were chosen for control wells where no inhibitors were added. This strain was grown in 3 ml of TrMM with diammonium citrate without ammonium sulfate, 100 mM PIPPS, 20 g/L spent grain extract, 40 g/L lactose adjusted to pH 4.5. The 24 well plates were shaken at 800 rpm at 85% humidity. The plate was covered with an air permeable membrane and the cultures were grown for 6 days.
Inhibitors were added first on day 3 and then added daily until day 6. 200 μl samples were taken from the culture wells beginning on day 3. The mycelium was spun down for 5 minutes at 13 k and the supernatant collected. From the culture supernatant 5 μl plus LSB was loaded in a 4-20% SDS PAGE gel and immunoblotting made on nitrocellulose with rabbit anti-FGF21 (2 μg/ml) and goat anti-rabbit IgG AP conjugated secondary antibody diluted 1:10,000. FGF21 standard were included on the blot for quantification.

Molecule | FGF21 expression, lower band (M1200 strain) [Fluorescent units] | FGF21 expression, total product (M1200 strain) [Fluorescent units] | FGF21 expression, upper band (M1200 strain) [Fluorescent units] | effect of inhibitor treatment on FGF21 forms (immunoblot) (M1200 strain) | FGF21 production (M393 strain)
c1cnc2c(c1)ccc1cccnc12 [1,10-phenathroline] | 68800 | 69574 | 774 | only improved the expression level of the 10 kD form | 
CC(C)C[C@H](NC(=O)[C@@H](NC(=O)N[C@@H](Cc1ccccc1)C(=O)O)[C@@H]1CCN=C(N)N1)C(=O)N[C@H](C=O)Cc1ccccc1 [chymostatin] | 19500 | 53700 | 34200 | improved the stability of the protein allowing a 17 kD major product | 
CC(C)CC(=O)N[C@H](C(=O)N[C@H](C(=O)N[C@@H](CC(C)C)[C@@H](O)CC(=O)N[C@@H](C)C(=O)N[C@@H](CC(C)C)[C@@H](O)CC(=O)O)C(C)C)C(C)C [pepstatin, pepstatin A] (Isovaleryl-VV[Sta]A[Sta]-OH) | 51050 | 52660 | 1610 | only improved the expression level of the 10 kD form | up to 160 mg/L
B1 | 37050 | 50850 | 13800 | only improved the expression level of the 10 kD form | 
